From article PMC7687371, “Quantitative in Vitro to in Vivo Extrapolation (QIVIVE) for Predicting Reduced Anogenital Distance Produced by Anti-Androgenic Pesticides in a Rodent Model for Male Reproductive Disorders” (Environmental Health Perspectives, 2020)
Where two headings read alike, the source gives them in different places. Marks after values point to notes of the source that are not given here.

Tests used:
NCI-H295R cells = test: H295R steroidogenesis assay; format: cell-based, human; conditions: for Effect on androgen (steroid) synthesis, in words: H295R steroidogenesis assay; for IC20: read-out: Testosterone inhibition (IC20 µM); for IC50: 48 h, read-out: Testosterone inhibition (IC50, μM)
Procedure: To capture effects on steroid hormone synthesis (testosterone and androstendione), we tested all 12 pesticides in the H295R assay with the human adrenocortical carcinoma cell line NCI-H295R (American Type Culture Collection no. CRL-2,128, LGC Standards), as previously described ([Hecker et al. 2011]; [Rosenmai et al. 2013]). In brief, cells were cultured in DMEM/F-12 +glutamine medium with HEPES buffer (Invitrogen) containing 1% insulin-transferrin-sodium selenite plus Premix (VWR) and 2.5% Nu-Serum (BD Bioscience) at 37°C in a 5% CO2 atmosphere. The day before exposure, cells were seeded 300,000 per well in clear 24-well plates (VWR Corning). Cells were exposed for 48 h to control (Forskolin: 1μM , 10μM (Sigma-Aldrich); and Prochloraz: 0.3μM , 3μM (VWR-Bie and Berntsen) or test compounds. The vehicle (DMSO) concentration was kept constant in all wells (0.1%). After 48 h, the exposure culture medium was removed and stored at –80°C until the levels of 10 steroid hormones (testosterone, androstenedione, aldosterone, corticosterone, cortisol, dehydroepiandrosterone, 17α-hydroxyprogesterone , progesterone, estrone, and 17β-estradiol ) were quantified using the high-performance liquid chromatography–tandem mass spectrometry method described elsewhere ([Mortensen and Pedersen 2007]). Minor modifications were made to accommodate a smaller sample size and to include more hormones. The liquid chromatography system (Agilent 1100) was equipped with an Atlantis C18 column ( 2.1×150mm , 3μm ) (Waters Corp.) maintained at 40°C. The sample injection volume was 50μL . […] The mass spectrometer was a Quattro Ultima triple quadrupole instrument (Waters Corp.). […] Each pesticide was tested in 2-fold serial dilutions at concentrations between 0.8 and 50μM in three independent experiments, and hormone levels were normalized to the solvent controls containing 0.1% DMSO. Cell viability was evaluated by using the 3-(4,5-dimethylthiazol-2-yl)-2,5- diphenyltetrazolium bromide (MTT) assay (Sigma) as previously described ([Hecker et al. 2011]; [Rosenmai et al. 2013]). Fluorescence was measured (excitation 560 nm , emission 590 nm ) using a Wallac Victor2 1420 multilabel counter (PerkinElmer).

[1] = PBK model first-order kinetic parameters fitted to in vivo ADME data; set-up: species or system rat; conditions: for Metabolism rate in liver, Total (L/h) KMetab: metabolic clearance
[2] = set-up: method as in U.S. EPA 2012; conditions: EPI Suite, experimental preferred over modeled; ref U.S. EPA 2012; cited from earlier work
[3] = cited from earlier work
pregnant dams and pups = conditions: cited from earlier work; for Critical toxicity / LOAEL (mg/kg bw) / NOAEL (mg/kg bw): ref EFSA's Draft Assessment Reports (DARs)
Sprague-Dawley rats = test: In vivo Study 2 (linuron), reproductive/developmental toxicity, AGD; conditions: for AGDI mean: Study 2, male pups; for AGDI reduction (%): male offspring, normalized AGDI scale
[4] = Fetal chemical exposure analysis (LC-QTOF) at GD21; format: in vivo, rat; conditions: male, Wistar, rat, in vivo, 60 mg/kg/day
Procedure: Dams were decapitated under CO2 /oxygen anesthesia at GD21 and fetuses collected by cesarean section. Prior to decapitation of the fetuses, their BWs and AGDs were recorded. Blood from the dams was collected in heparinized vacutainer tubes, centrifuged at 125×g for 10 min at 4°C to prepare plasma, and, together with the amniotic fluid, frozen directly. Pooled trunk blood from all female and male fetuses of the same litter (female and male blood separately) was collected into heparin-treated capillary tubes approximately 90 min after dosing and the plasma was prepared and stored at −80°C until analysis for pesticides and selected metabolites by liquid chromatography quadrupole time-of-flight mass spectroscopy (LC-QTOF). Details about the LC-QTOF analyses are provided in “Method S1” in Supplemental Material. Amniotic fluid was collected from fetuses by pipetting, pooled within each litter, snap frozen in liquid nitrogen, and subsequently stored at −80 °C .
Method S1. Chemical analysis of pesticide levels
Acetonitrile, methanol, formic acid and 25% ammonium hydroxide, all of LC-MS grade and ethyl acetate were obtained from Sigma Aldrich, Schneldorf, Germany. Isolute bulk C-18 sorbent was obtained from Biotage, Sweden and was washed with acetonitrile and ethyl acetate and dried prior to use. Water was purified on a Milli Q system, Millipore Corporation, US.
Pesticide standards were purchased from Dr. Ehrenstorfer (Augsburg, Germany), LGC-standards (Teddington, Middlesex, UK) and Sigma Aldrich (St. Louis, MO, USA). Acetonitrile used as solvents for the LC-QTOF was LiChrosolv Hypergrade. An ESI-L low concentration tuning mix from Agilent (Santa Clara, CA, USA) was used for tuning of the TOF. A reference solution was prepared containing Purine and HP0921 from Agilent (Santa Clara, CA, USA).
Stock solutions of the pesticides were prepared at 1 mg/ml in acetonitrile, methanol or toluene.
Standard mixtures containing the test compounds were prepared at a concentration of 10 µg/ml acetonitrile and used for preparation of calibration solutions. Isomers eluting very close to each other were avoided in these mixtures. […]
added 200 µl of ice-cold acetonitrile in Eppendorf tubes. Internal standard was added in the form of 10 µl TPP (5 µg/ml) and the extraction was performed by whirl mixing. The tube was then stored on ice for 5 min and then centrifuged at 10,000 x g for 10 min at 4 °C (Ole Dich Instrument, Denmark). An aliquot of the supernatant was transferred to filter vials (0.45 µm) and analysed by […]
Quality control samples were included in each analytical run. These were prepared using the same procedure as for the samples, though using amniotic fluid from untreated control Wistar rats extracted with acetonitrile containing three different levels of the relevant pesticide standards. The resulting spike levels were 0.04, 0.013 and 0.13 µg/ml. […]
fluid or plasma from Sprague Dawley rats was transferred to an Eppendorf vial and added 150 µl of acetonitrile. 50 mg of isolute C-18 sorbent was added to the tube, which was shaken for 5 min, […]
cooled to 4 °C and centrifuged at 10,000 x g for 10 min at 4 °C (Ole Dich Instrument makers, Denmark). 20 µl of the supernatant was transferred to an HPLC vial and mixed with 80 µl of 5%- 75% acetonitrile (this percentage was analyte dependent) prior to analysis by LC-MS.LC -QTOF […]
Pesticide screening was carried out using a liquid chromatography-electrospray ionization-quadrupole-time of flight-mass spectrometer.
The LC system was connected to a Bruker Daltonics, maXis qTOF mass spectrometer equipped with an electrospray ion source operated in positive ion mode (Bruker Daltonics, Bremen, Germany). The ion source settings were: nebulizer pressure 2 bars, drying gas flow 8 l/min, dry gas temperature 200 °C, capillary voltage 2500 V. The scan range was from 80 to 700 m/z with an acquisition rate of 2 Hz. Sodium formate dissolved in 50% 2-propanol was introduced in the ion […]

Wistar rats [5] = conditions: rat, in vivo
Wistar rats [6] = test: In vivo Study 3 (fludioxonil, cyprodinil, dimethomorph), reproductive/developmental toxicity, AGD

Row | SMILES | Effect on androgen (steroid) synthesis, in words (NCI-H295R cells) | IC20 (NCI-H295R cells; Homo sapiens, NCI-H295R) [µM] | Fecal excretion rate from gut (L/h) KFeces ([1]; PBK model parameter) [L/h] | Portal GI absorption rate into liver (L/h) KAS ([1]; PBK model parameter) [L/h] | Urine excretion rate from kidney (L/h) KUrine ([1]; PBK model parameter) [L/h] | Metabolism rate in liver, Total (L/h) KMetab ([1]; PBK model parameter) [L/h] | log Kow [2] | Critical toxicity (pregnant dams and pups) | LOAEL (mg/kg bw) (pregnant dams and pups) | NOAEL (mg/kg bw) (pregnant dams and pups) | Corticosterone, LOEC (NCI-H295R cells; multiple contrast tests) [µM] | Cortisol, LOEC (NCI-H295R cells; multiple contrast tests) [µM] | Estradiol, LOEC (NCI-H295R cells; multiple contrast tests) [µM] | Testosterone, lowest observed effect concentration (LOEC) (NCI-H295R cells; multiple contrast tests) [µM] | IC50 (NCI-H295R cells; Homo sapiens, NCI-H295R) [µM] | also measured
1 | Cc1cc(C)nc(Nc2ccccc2)n1 [Pyrimethanil, pyrimethanil] | no effect on any measured androgen | > 50 | 0.1 | 1 | 0.01 | 0.8 | 2.84 | Reduced maternal and pup BW | 294 | 23 |  |  |  |  |  | Unbound plasma fraction (%) ([3]; plasma): 2.0^g %
2 | CC1(C)[C@H](C(=O)O[C@H](C#N)c2cccc(Oc3ccccc3)c2)[C@@H]1/C=C(\Cl)C(F)(F)F (racemic) [λ-Cyhalothrin, λ-cyhalothrin] | no effect on any measured androgen | > 50 | 4 | 1 | 0.05 | 0.3 | 6.80 | Reduced maternal and pup BW |  |  | 3.1 | 3.1 |  |  |  | 
3 | CC1(C(=O)Nc2ccc(O)c(Cl)c2Cl)CCCCC1 [Fenhexamide, fenhexamid] | inhibited testosterone synthesis | 5.2 | 3 | 1 | 0.05 | 0.15 | 3.51 | Reduced maternal body and organ weight | 450 | 45 | 3.1 | 3.1 | 12.5 | 6.3 |  | Androstendione, LOEC (NCI-H295R cells; multiple contrast tests): 12.5 µM; DHEA, LOEC (NCI-H295R cells; multiple contrast tests): 12.5 µM; OH-Progesterone, LOEC (NCI-H295R cells; multiple contrast tests): 25 µM; Progesterone, LOEC (NCI-H295R cells; multiple contrast tests): 12.5 µM; Unbound plasma fraction (%) ([3]; plasma): 5.7^g %
4 | NC(=O)Nc1ccc(Cl)c(Cl)c1 [DPU, 1-(3,4-Dichlorophenyl)urea] |  |  |  |  | 0.05 |  | 2.00 |  |  |  |  |  |  |  | 5 | Metabolism rate in liver, Metabolite ([1]; conversion of parent compound into active metabolite): 0.25 L/h
5 | CON(C)C(=O)Nc1ccc(Cl)c(Cl)c1 [Linuron, linuron, reference compound] | inhibited the synthesis of androgens |  | 0.08 | 0.5 | 0.05 | 1.0 | 3.20 |  |  |  |  |  |  |  | 27 | Unbound plasma fraction (%) ([3]; ref Wetmore et al. (2012)): 10.5^g %; AGDI ED10 (Sprague-Dawley rats; Study 2, dose causing 10% AGDI reduction, regression): 27 mg/kg BW; AGDI mean (Sprague-Dawley rats; dose 25 mg/kg BW (control 1.00)): 0.91; AGDI mean (Sprague-Dawley rats; dose 50 mg/kg BW (control 1.00)): 0.72; Maternal toxicity (Sprague-Dawley rats; highest dose, 75 mg/kg per day): Maternal toxicity was observed; AGDI reduction (%) (Sprague-Dawley rats; dose 25 mg/kg BW per day): 9%; AGDI reduction (%) (Sprague-Dawley rats; dose 50 mg/kg BW per day): 28%
6 | Oc1ccccc1-c1ccccc1 [o -Phenylphenol, o -phenylphenol] | inhibited testosterone synthesis |  | 0.1 | 1 | 0.01 | 0.2 | 3.09 | Maternal BW gain, bladder & kidney effect | 140 | 40 |  |  | 25 | 50 |  | IC20 (NCI-H295R cells; NCI-H295R cells): 25 µM; Unbound plasma fraction (%) ([3]; ref Wetmore et al. (2012)): 4.1^g %
7 | Cc1cc(C2CC2)nc(Nc2ccccc2)n1 [Cyprodinil, cyprodinil] | inhibited testosterone synthesis | 0.4 | 1 | 1 | 0.2 | 0.01 | 4.00 | Reduced maternal and pup BW |  | 71 | 25 | 25 | 6.3 | 6.3 | 8.5 | Androstendione, LOEC (NCI-H295R cells; multiple contrast tests): 6.3 µM; Biliary excretion rate (L/h) KBiliary ([1]; PBK model parameter): 1.6 L/h; Measured concentration in male fetuses [4]: 6.6 µM; Shortening of AGDI compared with male controls (normalized AGDI scale) (Wistar rats [5]; male, Wistar (HanTac:WH)): around 10%; AGDI mean (Wistar rats [5]; male, Wistar, 20 mg/kg): 2.13; AGDI mean (Wistar rats [5]; male, Wistar, 60 mg/kg): 1.98; AGDI reduction (%) (Wistar rats [5]; male, Wistar, 60 mg/kg/day): 16%; AGDI mean (Wistar rats [5]; male, Wistar, 180 mg/kg): 2.09; Nipple retention at PD14, statistics in words (Wistar rats [5]): no statistically significant effects on nipple retention; Maternal liver toxicity (pregnant dams and pups; 180 mg/kg per day, ref EFSA 2005): induce maternal liver toxicity; % postnatal deaths (Wistar rats [6]; 20 mg/kg bw/day): 1.2 ± 3.7%; % postnatal deaths (Wistar rats [6]; 60 mg/kg bw/day): 0.0 ± 0.0%; % postnatal deaths (Wistar rats [6]; 180 mg/kg bw/day): 0.0 ± 0.0%
